This note sets out measurements from article PMC6509344, “Novel CMKLR1 Inhibitors for Application in Demyelinating Disease” (Scientific Reports, 2019).

Data set [1] has as its target T1, Cyp2C9 (Homo sapiens, UniProt P11712).
T1 construct: tissue Cyprotex/Evotec AG; host or cells: human liver microsomes
The data set can be described thus: Cyp enzyme inhibition in human liver microsomes. Format: in vitro ADME. The note with it: 30 min pre-incubation.

For data set [2], the target named is T2, Cyp2B6 (Homo sapiens, UniProt P20813).
T2 construct: tissue Cyprotex/Evotec AG; host or cells: human liver microsomes
T2 sequence (P20813 1-491): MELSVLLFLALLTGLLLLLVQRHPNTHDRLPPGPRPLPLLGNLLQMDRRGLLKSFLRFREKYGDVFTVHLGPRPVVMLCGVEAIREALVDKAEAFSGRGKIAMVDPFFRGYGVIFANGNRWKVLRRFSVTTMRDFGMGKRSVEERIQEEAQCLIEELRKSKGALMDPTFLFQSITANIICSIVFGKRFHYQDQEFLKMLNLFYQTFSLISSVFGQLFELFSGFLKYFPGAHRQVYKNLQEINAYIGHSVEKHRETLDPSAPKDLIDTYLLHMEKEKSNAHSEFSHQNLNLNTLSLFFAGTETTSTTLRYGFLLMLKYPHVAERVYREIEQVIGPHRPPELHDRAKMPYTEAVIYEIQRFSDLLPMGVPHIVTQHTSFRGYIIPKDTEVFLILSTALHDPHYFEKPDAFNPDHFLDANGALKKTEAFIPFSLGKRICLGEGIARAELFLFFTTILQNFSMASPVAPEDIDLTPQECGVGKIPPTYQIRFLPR
The experiment in a line: Cyp enzyme inhibition in human liver microsomes. In kind it is in vitro ADME. The note with it: 30 min pre-incubation. Background: Liver microsomes are a subcellular fraction often used to study metabolism.

Data set [3] in a line: Acute single dose toxicity (LD50). The note with it: C57BL/6, mouse, in vivo; p.o. (oral gavage) in 10% captisol, WT C57BL6 mice, 14 days monitoring.
Procedure: C57/BL6 mice received one treatment of α-NETA (formulated in 10% captisol, Cydex Pharmaceuticals) at the following doses: 3000, 1000, 300, 100, 30, 0 mg/kg by oral gavage (200 ul/dose, 3 mice/group). Mouse survival was monitored and body weight was measured daily for 14 days. On day 14 the mice were euthanized and the wet weight for the following tissues: kidney, brain, spleen, liver, heart, and lung, was recorded.
Data set [4] relates to Cyp enzymes. The data set can be described thus: Time-dependent (mechanism-based) Cyp inhibition. Format: in vitro ADME, human. The note with it: not shown. The procedure: Human liver microsomes were pre-incubated with 7 concentrations (0.1–100 mM, duplicate wells) of α-NETA for 30 min.
Data set [5] deals with T3, CMKLR1 (Homo sapiens, UniProt Q99788).
T3 construct: host or cells: CHO-K1 (PathHunter CMKLR1 β-Arrestin cells)
T3 sequence (Q99788 1-373): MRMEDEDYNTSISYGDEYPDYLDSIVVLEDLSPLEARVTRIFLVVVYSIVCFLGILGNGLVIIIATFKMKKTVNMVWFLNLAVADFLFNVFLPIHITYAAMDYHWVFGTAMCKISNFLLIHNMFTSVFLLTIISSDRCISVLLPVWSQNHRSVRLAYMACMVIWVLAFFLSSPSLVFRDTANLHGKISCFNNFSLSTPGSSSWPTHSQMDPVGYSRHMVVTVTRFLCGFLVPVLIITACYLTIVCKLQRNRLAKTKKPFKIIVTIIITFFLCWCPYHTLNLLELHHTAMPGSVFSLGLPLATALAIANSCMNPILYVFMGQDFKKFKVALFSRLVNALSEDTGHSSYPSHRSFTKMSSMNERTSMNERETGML
The experiment in a line: β-arrestin recruitment assay (chemerin-dependent β-arrestin2 signaling). In kind it is cell-based. The note with it: CMKLR1-CHO-β-Arrestin cells, 20 nM chemerin, read-out: β-arrestin IC50 mean ± SEM (n). The procedure:
DiscoverX PathHunter® CHO-K1 CMKLR1 β-Arrestin Cells were grown in RPMI lacking phenol red (Gibco, Life Technologies), supplemented with L-glutamine, penicillin-streptomycin, sodium pyruvate, non-essential amino acid, BCS, hygromycin, and G418-sulfate. CMKLR1-CHO-β-Arrestin cells were seeded in 96 well plates at 1 × 10^5 cell/ml- 100 ul/well and incubated overnight at 37 °C, 5% CO2. […] (α-NETA and test compounds were reconstituted in DMSO; final DMSO concentration in each well was 0.1%). After 10 min, 5 ul of recombinant human chemerin (R&D Systems) at a final concentration of 20 nM was added to each well. Plates were incubated for 90 min at 37 °C, 5% CO2. Media was then removed and 50 ul of chemiluminescent substrate (Tropix Gal-Screen, Applied Biosciences) was added. The plate was incubated for 1 hr at RT and luminescence was detected using the SpectraMax M5 plate reader (Molecular Devices). For each independent trial (single replicate dose curves), data was normalized to the maximum signal per compound tested and an IC50 value was generated using GraphPad Prism software. The average IC50 value for n independent trials (as specified in the table) is reported.
On the technique in general: Arrestin recruitment assays detect the binding of arrestin to an activated receptor.

Where two headings read alike, the source gives them in different places.

T1 sequence (P11712 whole entry): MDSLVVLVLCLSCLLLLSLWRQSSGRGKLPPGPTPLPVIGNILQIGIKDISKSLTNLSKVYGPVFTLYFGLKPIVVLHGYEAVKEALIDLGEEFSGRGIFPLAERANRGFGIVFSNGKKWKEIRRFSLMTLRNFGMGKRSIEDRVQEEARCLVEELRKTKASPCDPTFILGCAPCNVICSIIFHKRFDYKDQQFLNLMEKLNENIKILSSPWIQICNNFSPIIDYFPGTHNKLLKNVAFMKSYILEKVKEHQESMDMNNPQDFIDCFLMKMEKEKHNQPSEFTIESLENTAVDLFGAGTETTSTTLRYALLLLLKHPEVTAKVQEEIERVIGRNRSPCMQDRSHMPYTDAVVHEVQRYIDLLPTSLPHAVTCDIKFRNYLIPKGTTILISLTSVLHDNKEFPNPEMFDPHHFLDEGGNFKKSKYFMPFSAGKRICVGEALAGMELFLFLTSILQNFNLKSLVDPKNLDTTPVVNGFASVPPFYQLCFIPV

In the case of `C[N+](C)(C)CCC(=O)c1cccc2ccccc12.[I-]` [α-NETA, 2-(α-naphthoyl) ethyltrimethylammonium iodide], the concentration for half-maximal inhibition (IC50) in data set [1] came out at 14.6 µM; in data set [2] it was 120 nM; in data set [5] (Table 2 tertiary amines), 4.9 ± 1.5 µM; in data set [5] (Table 3 quaternary ammonium salts), 4.9 ± 1.5 µM. This compound came in with an LD50 at 14 days in data set [3] of 873 mg/kg. Also, the “time-dependent (mechanism-based) Cyp inhibition” value in data set [4] is “No time-dependent (mechanism-based) Cyp inhibition was detected”.

Broadly, the IC50 is the concentration needed to halve the response being measured. A word on the LD50: it is the dose at which mortality reaches 50%. A higher LD50 goes with a less toxic substance.
